In ChEMBL document CHEMBL5126589, “Drug design and DNA structural research inspired by the Neidle laboratory: DNA minor groove binding and transcription factor inhibition by thiophene diamidines” (Bioorg Med Chem, 2022):
pIC50, pKd: −log10 of the molar value.

What was measured:
[1] = Binding affinity to biotin labeled hairpin DNA 5'-GAATTC-3' (unknown origin) assessed as dissociation rate constant by sensor chip immobilization based surface plasmon resonance analysis
[2] = Binding affinity to biotin labeled hairpin DNA 5'-GAATTC-3' (unknown origin) assessed as equilibrium dissociation constant by sensor chip immobilization based surface plasmon resonance analysis
[3] = Binding affinity to biotin labeled hairpin DNA 5'-GAATTC-3' (unknown origin) assessed as equilibrium binding constant by sensor chip immobilization based surface plasmon resonance analysis
[4] = Inhibition of PU.1 binding to biotin labeled lambdaB DNA (unknown origin) by sensor chip immobilization based surface plasmon resonance analysis
[5] = Binding affinity to biotin labeled hairpin DNA 5'-GAATTC-3' (unknown origin) assessed as association constant by sensor chip immobilization based surface plasmon resonance analysis

In the case of `N=C(N)c1ccc(-c2ccc(-c3nc4ccc(C(=N)N)cc4[nH]3)s2)cc1`, the Kd [1] was 8.9 10^-3/s, the pKd [2] was 8.82 and the KA [3] was 6.6 10^8/M. For the same molecule, the pIC50 [4] was 8.05 and the Ka [5] was 5.8 10^6/M/s.
With `N=C(N)c1ccc(-c2ccc(-c3cc4ccc(C(=N)N)cc4[nH]3)s2)cc1` the Kd [1] was 2.9 10^-3/s, the pKd [2] was 8.19 and the pIC50 [4] was 7.64. The Ka [5] was 4.5 10^5/M/s.
Molecule `N=C(N)c1ccc(-c2ccc(-c3ccc(C(=N)N)cc3)o2)cc1` [FURAMIDINE] has a pKd [2] of 6.85.
